The record followed here is ChEMBL document CHEMBL1201862, “PubChem BioAssay data set” (2004).

Among the test systems are ACHN; HCT-15; HL-60; HOP-92; K562; KM12; LOX IMVI; OVCAR-3; OVCAR-4; OVCAR-5; RXF 393; SK-MEL-2; SK-MEL-5; SK-OV-3; SW-620; TK-10; UO-31; NCI-H522.
Common to all, as to assay: NCI anticancer screen, dose series, 48 h

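A five-concentration, 48-hour dose response in 96-well plates underlies each endpoint, interpolated linearly between surrounding concentrations. Abbreviation: GI50, concentration required for 50% inhibition of growth.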 Active and inactive are the calls of the source. Rule as the data show it: active = GI50 up to about 1.1 µM and inactive = higher.

For `CC(C)(C)c1ccc(OCCOCCOc2ccc(C(C)(C)C)cc2S(N)(=O)=O)c(S(N)(=O)=O)c1`, the GI50 is 29.1 µM (inactive) with ACHN; 45.6 µM in the experiment on HCT-15; 14.5 µM (inactive) with HL-60; 24.6 µM (inactive) with HOP-92; > 100 µM (inactive) with K562; 52.1 µM (inactive) with KM12. Besides, the GI50 in the experiment on LOX IMVI is 23.7 µM (inactive); in the experiment with OVCAR-3 it was > 100 µM (inactive); in the experiment on OVCAR-4, > 100 µM (inactive); with OVCAR-5 it was > 100 µM (inactive); in the experiment on RXF 393, 20.2 µM (inactive); in the experiment on SK-MEL-2, 67.8 µM (inactive). Also, the GI50 with SK-MEL-5 was 8.13 µM (inactive); in the experiment on SK-OV-3, > 100 µM (inactive); with SW-620, > 100 µM (inactive); in the experiment on TK-10 it was > 100 µM (inactive); with UO-31, 5.85 µM (inactive).
`Cc1ccc(NC(=O)SCCC(=O)O)cc1`: the GI50 with ACHN was > 100 µM (inactive); in the experiment with HCT-15, above 100 µM; in the experiment with HL-60 it was > 100 µM (inactive); in the experiment with K562 it was > 100 µM (inactive); with KM12, > 100 µM (inactive); in the experiment on LOX IMVI, > 100 µM (inactive). The GI50 in the experiment with NCI-H522, in the experiment with OVCAR-3, in the experiment with OVCAR-4, in the experiment on OVCAR-5, in the experiment with RXF 393 and in the experiment with SK-MEL-2 was > 100 µM (inactive) throughout. The GI50 with SW-620, in the experiment on TK-10 and with UO-31 was > 100 µM (inactive) each time.
`C/C(=N\NC(=O)C(N)=O)c1c(O)cc(C)oc1=O`: the GI50 with ACHN was > 100 µM (inactive); with HCT-15 it was above 100 µM; with HL-60 it was > 100 µM (inactive); with HOP-92, > 100 µM (inactive); in the experiment on K562, > 100 µM (inactive); in the experiment on KM12 it was > 100 µM (inactive). The GI50 with LOX IMVI, in the experiment with OVCAR-4, in the experiment on SK-MEL-2, in the experiment on SK-MEL-5, in the experiment with SK-OV-3 and in the experiment on SW-620 was > 100 µM (inactive) in each case. In addition, the GI50 with TK-10 and in the experiment with UO-31 was > 100 µM (inactive) throughout.
Turning to `O=[N+]([O-])c1ccc(-c2ccc(-c3csc(Nc4ccccn4)n3)o2)cc1`, the GI50 was 45.8 µM (inactive) with ACHN; 79.8 µM in the experiment with HCT-15; > 100 µM (inactive) with HL-60; > 100 µM (inactive) in the experiment on HOP-92; 66.5 µM (inactive) in the experiment with K562; 49.5 µM (inactive) in the experiment on KM12. Moreover, the GI50 in the experiment with LOX IMVI is 63.4 µM (inactive); with NCI-H522 it was > 100 µM (inactive); with OVCAR-3, > 100 µM (inactive); in the experiment with OVCAR-4 it was 4.76 µM (inactive); in the experiment on OVCAR-5 it was > 100 µM (inactive); in the experiment on SK-MEL-2 it was > 100 µM (inactive). Further, the GI50 is 14.3 µM (inactive) in the experiment on SK-OV-3, > 100 µM (inactive) in the experiment with SW-620, 26.9 µM (inactive) with TK-10 and > 100 µM (inactive) in the experiment with UO-31.
Take `O=c1n(C2CCCCC2)c(=C(Cl)Cl)c(=C(Cl)Cl)n1C1CCCCC1`: the GI50 is > 100 µM (inactive) in the experiment on ACHN; above 100 µM in the experiment on HCT-15; 39.6 µM (inactive) in the experiment on HL-60; > 100 µM (inactive) with K562; > 100 µM (inactive) in the experiment on KM12; > 100 µM (inactive) with LOX IMVI. Also, the GI50 in the experiment with NCI-H522, in the experiment on OVCAR-3, with OVCAR-4, in the experiment on OVCAR-5, in the experiment with RXF 393 and with SK-MEL-2 was > 100 µM (inactive) in each case. For the same molecule, the GI50 in the experiment with SK-MEL-5, in the experiment on SK-OV-3, in the experiment with SW-620, in the experiment with TK-10 and in the experiment on UO-31 was > 100 µM (inactive) throughout.
In the case of `CCOC(=O)NC(=O)c1cn(CCCCCCOC(=O)NCCCCCCNC(=O)OCCCCCCn2cc(C(=O)NC(=O)OCC)c(=O)[nH]c2=O)c(=O)[nH]c1=O`, the GI50 is > 100 µM (inactive) in the experiment on ACHN; above 100 µM in the experiment with HCT-15; > 100 µM (inactive) in the experiment with HL-60; > 100 µM (inactive) in the experiment on K562; > 100 µM (inactive) in the experiment on KM12; > 100 µM (inactive) in the experiment on LOX IMVI. Also, the GI50 in the experiment on NCI-H522, in the experiment with OVCAR-3, in the experiment on OVCAR-4, with RXF 393, in the experiment on SK-MEL-2 and in the experiment with SK-MEL-5 was > 100 µM (inactive) each time. In addition, the GI50 with SK-OV-3, in the experiment with SW-620 and in the experiment on UO-31 was > 100 µM (inactive) each time.
Take `CCN1C(=O)N2C(OC)c3ccccc3C(Br)C2(OC)C1=O` (centres undefined): the GI50 in the experiment on HCT-15 is above 100 µM; with HL-60 it was > 100 µM (inactive); in the experiment on K562, > 100 µM (inactive); in the experiment with KM12, > 100 µM (inactive); with LOX IMVI it was > 100 µM (inactive); with NCI-H522 it was > 100 µM (inactive). Also, the GI50 with OVCAR-3, in the experiment on OVCAR-4, with OVCAR-5, in the experiment on SK-MEL-2, in the experiment with SK-MEL-5 and in the experiment on SK-OV-3 was > 100 µM (inactive) throughout. The GI50 with SW-620, in the experiment on TK-10 and in the experiment with UO-31 was > 100 µM (inactive) throughout.
For the molecule `CC1CCC2(CC1)NN=c1s/c(=C\c3ccc(O)cc3)c(=O)n1N2` (centres undefined), the GI50 is > 100 µM (inactive) in the experiment on HL-60; > 100 µM (inactive) in the experiment with K562; > 100 µM (inactive) in the experiment with KM12; 81.8 µM (inactive) in the experiment on LOX IMVI; > 100 µM (inactive) in the experiment with NCI-H522; > 100 µM (inactive) in the experiment on OVCAR-3. The GI50 in the experiment with OVCAR-4, with RXF 393, with SK-MEL-5, in the experiment with SK-OV-3, in the experiment with SW-620 and in the experiment on TK-10 was > 100 µM (inactive) each time.
Regarding `Cn1c(=O)c2c(nc3n2C(CCl)CO3)n(C)c1=O` (centres undefined), the GI50 with ACHN was > 100 µM (inactive); with HCT-15 it was above 100 µM; with HL-60, > 100 µM (inactive); with HOP-92, > 100 µM (inactive); in the experiment with K562 it was > 100 µM (inactive); with KM12, > 100 µM (inactive). For the same molecule, the GI50 in the experiment on NCI-H522, in the experiment on OVCAR-3, in the experiment on OVCAR-4, in the experiment on OVCAR-5, with SK-MEL-2 and in the experiment with SK-MEL-5 was > 100 µM (inactive) in each case. Further, the GI50 in the experiment on SK-OV-3, in the experiment on SW-620, in the experiment with TK-10 and with UO-31 was > 100 µM (inactive) in each case.
Turning to `CCC1=C(C[C@H]2NCCc3cc(OC)c(OC)cc32)C[C@H]2c3cc(OC)c(OC)cc3CCN2C1`, the GI50 with ACHN is 0.0388 µM (active); with HCT-15 it was 0.258 µM; with HL-60, 0.0247 µM (active); with HOP-92, 0.0204 µM (active); in the experiment on NCI-H522, 0.0257 µM (active); in the experiment with OVCAR-3, 0.0387 µM (active). The GI50 was 0.0143 µM (active) in the experiment on OVCAR-4; 0.0521 µM (active) with OVCAR-5; 0.0254 µM (active) in the experiment on RXF 393; 0.0248 µM (active) with SK-MEL-2; 0.0234 µM (active) with SK-MEL-5; 0.0637 µM (active) with SK-OV-3. In addition, the GI50 in the experiment with SW-620 is 0.028 µM (active); with UO-31, 0.316 µM (active).
In the case of `CN1CCCC2[C@@H]3CCC4c5nonc5CC[C@]4(C)C3CC[C@@]21C` (some centres undefined), the GI50 with ACHN was > 100 µM (inactive); in the experiment on HCT-15 it was 57.7 µM; in the experiment on K562 it was 67.8 µM (inactive); with KM12, > 100 µM (inactive); in the experiment on NCI-H522, > 100 µM (inactive); in the experiment with OVCAR-4, > 100 µM (inactive). The GI50 is > 100 µM (inactive) with OVCAR-5; 50.1 µM (inactive) in the experiment on RXF 393; > 100 µM (inactive) in the experiment with SK-MEL-2; 42.5 µM (inactive) in the experiment on SK-MEL-5; 17.9 µM (inactive) in the experiment on SK-OV-3; > 100 µM (inactive) in the experiment on SW-620. The GI50 in the experiment on TK-10 and in the experiment on UO-31 was > 100 µM (inactive) each time.
For the molecule `Cn1c(=O)c2ccccc2c2nc3ccccc3nc21`, the GI50 is > 100 µM (inactive) in the experiment on ACHN; above 100 µM in the experiment on HCT-15; > 100 µM (inactive) with K562; > 100 µM (inactive) in the experiment with KM12; > 100 µM (inactive) in the experiment on OVCAR-5; > 100 µM (inactive) in the experiment on RXF 393. Moreover, the GI50 in the experiment on SK-MEL-2 is > 100 µM (inactive); in the experiment on SK-MEL-5, > 100 µM (inactive); in the experiment on SK-OV-3, 37.2 µM (inactive); in the experiment with SW-620, > 100 µM (inactive); in the experiment on TK-10, 45.5 µM (inactive); with UO-31, > 100 µM (inactive).
Consider `COC(=O)c1c(-c2ccccc2)cc2c3cc(-c4ccccc4)c(C(=O)OC)n3c3ccccc3n12`, for which the GI50 with ACHN is > 100 µM (inactive); with HCT-15, above 100 µM; in the experiment on HL-60, > 100 µM (inactive); with K562, > 100 µM (inactive); with KM12 it was > 100 µM (inactive); in the experiment with LOX IMVI, > 100 µM (inactive). In addition, the GI50 in the experiment with NCI-H522 is > 91 µM (inactive); in the experiment with OVCAR-3, > 100 µM (inactive); in the experiment on OVCAR-4 it was 22.6 µM (inactive); with OVCAR-5, > 100 µM (inactive); with RXF 393, > 44.8 µM (inactive); in the experiment on SK-MEL-2, > 100 µM (inactive). For the same molecule, the GI50 with SK-MEL-5, in the experiment on SK-OV-3, with SW-620, with TK-10 and in the experiment with UO-31 was > 100 µM (inactive) in each case.
